# Reference: ChEMBL document CHEMBL5505982, “Design, synthesis, biological evaluation and in silico studies of novel quinoline derivatives as potential radioprotective molecules targeting the TLR2 and p53 pathways” (Eur J Med Chem, 2024)
# The source made the active and inactive calls. No cut-off for these calls is given here.
# What was measured:
# Mus musculus [1] = experiment: Radioprotective activity in irradiated C57BL/6J mouse model assessed as increase in RBC count at 300 mg/kg, ip preincubated with compound for 15 to 1440 mins followed by irradiation with 6.5 Gy and measured after 13 days of radiation; type: functional, organism-based; conditions: Erythrocyte, time 15-20160 min
# Toll-like receptor 2 [2] = target: T1, Toll-like receptor 2 (Homo sapiens, UniProt O60603); experiment: Agonist activity at TLR2 in human HUVEC cells assessed as increase in MyD88 level pretreated with compound for 24 hrs in presence of ionizing irradiation by Western blotting analysis; type: cell-based; conditions: filed as agonist
# T1 sequence (O60603 whole entry): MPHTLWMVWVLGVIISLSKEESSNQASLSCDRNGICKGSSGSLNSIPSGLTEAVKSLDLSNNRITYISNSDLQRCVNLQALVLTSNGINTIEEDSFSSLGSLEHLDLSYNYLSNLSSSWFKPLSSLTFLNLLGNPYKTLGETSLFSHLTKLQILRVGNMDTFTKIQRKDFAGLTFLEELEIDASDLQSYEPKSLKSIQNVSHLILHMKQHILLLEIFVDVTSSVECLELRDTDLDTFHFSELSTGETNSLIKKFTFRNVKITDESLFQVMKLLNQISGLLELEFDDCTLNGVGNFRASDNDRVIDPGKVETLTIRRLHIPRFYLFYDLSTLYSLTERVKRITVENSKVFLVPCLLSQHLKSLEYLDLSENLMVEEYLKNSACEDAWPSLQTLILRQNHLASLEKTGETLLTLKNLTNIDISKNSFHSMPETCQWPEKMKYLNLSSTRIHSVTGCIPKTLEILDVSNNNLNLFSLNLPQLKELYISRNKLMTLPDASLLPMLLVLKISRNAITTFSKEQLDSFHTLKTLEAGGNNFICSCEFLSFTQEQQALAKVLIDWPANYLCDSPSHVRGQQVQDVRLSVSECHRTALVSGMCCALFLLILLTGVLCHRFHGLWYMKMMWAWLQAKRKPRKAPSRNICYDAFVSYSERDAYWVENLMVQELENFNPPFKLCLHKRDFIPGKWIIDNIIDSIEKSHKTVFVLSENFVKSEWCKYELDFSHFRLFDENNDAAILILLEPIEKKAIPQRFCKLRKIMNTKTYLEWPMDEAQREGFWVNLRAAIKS
# Mus musculus [3] = experiment: Radioprotective activity in irradiated C57BL/6J mouse model assessed as increase in platelets count at 300 mg/kg, ip preincubated with compound for 15 to 1440 mins followed by irradiation with 6.5 Gy and measured after 14 days of radiation relative to Ex-rad/control; type: functional, organism-based; conditions: time 15-21600 min
# Toll-like receptor 2 [4] = target: T1, Toll-like receptor 2; experiment: Binding affinity to TLR2 (unknown origin) by SPR analysis; conditions: filed as agonist, dose 3-100 µM
# Mus musculus [5] = experiment: Radioprotective activity in irradiated C57BL/6J mouse model assessed as increase in platelets count at 300 mg/kg, ip preincubated with compound for 15 to 1440 mins followed by irradiation with 6.5 Gy and measured after 2 days of radiation; type: functional, organism-based; conditions: time 15-4320 min
# AHH-1 [6] = experiment: Induction of apoptosis in human AHH-1 cells assessed as late apoptotic cells preincubated with compound for 24 hrs followed by irradiation with 6 Gy and measured after 24 hrs of radiation by Annexin V-FITC/PI staining based flow cytometry analysis (reference value: 29.8%); type: functional; conditions: time 48 hrs
# Mus musculus [7] = experiment: (§1) Radioprotective activity against radiation-induced intestinal injury C57BL/6J mouse model assessed as increase in splenic index at 300 mg/kg, ip preincubated with compound for 15 to 1440 mins followed by irradiation with 13 Gy and measured after 84 hrs of radiation by H and E staining based analysis; type: functional, organism-based; conditions: time 15-6480 min
# AHH-1 [8] = experiment: Radioprotective activity against radiation-induced DNA damage in human AHH-1 cells assessed as reduction in gamma-H2AX foci in nucleus preincubated with compound for 24 hrs followed by irradiation with 1.175 Gy/min and measured after 2 hrs of radiation by fluorescence microscopic analysis; type: functional, cell-based; conditions: time 26.0 hrs
# Mus musculus [9] = experiment: Radioprotective activity in irradiated C57BL/6J mouse model assessed as increase in HGB count at 300 mg/kg, ip preincubated with compound for 15 to 1440 mins followed by irradiation with 6.5 Gy and measured after 10 days of radiation relative to Ex-rad/control; type: functional, organism-based; conditions: time 15-15840 min
# AHH-1 [10] = experiment: Cytotoxicity against human AHH-1 cells assessed as inhibition of cell growth incubated for 24 hrs by CCK-8 assay; type: functional, cell-based; conditions: AHH-1, 24 h
# Mus musculus [11] = experiment: Radioprotective activity in C57BL/6J mouse assessed as survival rate at 30 mg/kg, ip preincubated with compound for 15 to 1440 mins followed by irradiation and measured at day 30; type: functional; conditions: light or radiation study, time 15-44640 min
# Toll-like receptor 2 [12] = target: T1, Toll-like receptor 2; experiment: Binding affinity to TLR2 (unknown origin) assessed as dissociation constant by SPR analysis
# AHH-1 [13] = experiment: Induction of apoptosis in human AHH-1 cells assessed as viable cells preincubated with compound for 24 hrs followed by irradiation with 6 Gy and measured after 24 hrs of radiation by Annexin V-FITC/PI staining based flow cytometry analysis (reference value: 52.3%); type: functional; conditions: time 48 hrs
# Mus musculus [14] = experiment: Radioprotective activity against radiation-induced intestinal injury C57BL/6J mouse model assessed as increase in villi length at 300 mg/kg, ip preincubated with compound for 15 to 1440 mins followed by irradiation with 13 Gy and measured after 84 hrs of radiation by H and E staining based analysis; type: functional, organism-based; conditions: time 15-6480 min
# Mus musculus [15] = experiment: Radioprotective activity in C57BL/6J mouse model assessed as upregulation of G-CSF expression at 300 mg/kg, ip measured after 2 hrs of 7.5 Gy radiation by ELISA analysis; type: functional, organism-based
# Mus musculus [16] = experiment: Radioprotective activity in C57BL/6J mouse assessed as increase in body weight at 30 mg/kg, ip preincubated with compound for 15 to 1440 mins followed by irradiation and measured after 10, 14, 18, 22 and 30 days; type: functional, organism-based; conditions: time 15-44640 min
# Mus musculus [17] = experiment: Radioprotective activity in C57BL/6J mouse assessed as increase in WBC count at 300 mg/kg, ip preincubated with compound for 15 to 1440 mins followed by irradiation at 6.5 Gy and measured at 1 to 10 days relative to Ex/RAD/control; type: functional, organism-based
# Mus musculus [18] = experiment: as §1, with “number of crypt foci” for “splenic index”; type: functional, organism-based; conditions: time 15-6480 min
# Mus musculus [19] = experiment: Radioprotective activity in irradiated C57BL/6J mouse model assessed as increase in HGB count at 300 mg/kg, ip preincubated with compound for 15 to 1440 mins followed by irradiation with 6.5 Gy and measured after 13 days of radiation; type: functional, organism-based; conditions: time 15-20160 min
# AHH-1 [20] = experiment: Induction of apoptosis in human AHH-1 cells assessed as necrotic cells preincubated with compound for 24 hrs followed by irradiation with 4 Gy and measured after 24 hrs of radiation by Annexin V-FITC/PI staining based flow cytometry analysis (reference value: 1.06%); type: functional; conditions: time 48 hrs
# AHH-1 [21] = experiment: Induction of apoptosis in human AHH-1 cells assessed as late apoptotic cells preincubated with compound for 24 hrs followed by irradiation with 8 Gy and measured after 24 hrs of radiation by Annexin V-FITC/PI staining based flow cytometry analysis (reference value: 33.6%); type: functional; conditions: time 48 hrs
# AHH-1 [22] = experiment: Induction of apoptosis in human AHH-1 cells assessed as necrotic cells preincubated with compound for 24 hrs followed by irradiation with 8 Gy and measured after 24 hrs of radiation by Annexin V-FITC/PI staining based flow cytometry analysis (reference value: 4.86%); type: functional; conditions: time 48 hrs
# Mus musculus [23] = experiment: Radioprotective activity in irradiated C57BL/6J mouse model assessed as increase in platelets count at 300 mg/kg, ip preincubated with compound for 15 to 1440 mins followed by irradiation with 6.5 Gy and measured after 3 to 10 days of radiation; type: functional, organism-based
# AHH-1 [24] = experiment: Induction of apoptosis in human AHH-1 cells assessed as early apoptotic cells preincubated with compound for 24 hrs followed by irradiation with 4 Gy and measured after 24 hrs of radiation by Annexin V-FITC/PI staining based flow cytometry analysis (reference value: 14.3%); type: functional; conditions: time 48 hrs
# AHH-1 [25] = experiment: Radioprotective activity against human AHH-1 cells assessed as decrease in Bax expression pretreated with compound for 24 hrs in presence of ionizing irradiation by Western blotting analysis; type: functional, cell-based
# AHH-1 [26] = experiment: Induction of apoptosis in human AHH-1 cells assessed as viable cells preincubated with compound for 24 hrs followed by irradiation with 8 Gy and measured after 24 hrs of radiation by Annexin V-FITC/PI staining based flow cytometry analysis (reference value: 45.1%); type: functional; conditions: time 48 hrs
# Toll-like receptor 2 [27] = target: T1, Toll-like receptor 2; experiment: Agonist activity at TLR2 in human HUVEC cells assessed as increase in p65 level pretreated with compound for 24 hrs in presence of ionizing irradiation by Western blotting analysis; type: cell-based; conditions: filed as agonist
# Mus musculus [28] = experiment: Radioprotective activity in irradiated C57BL/6J mouse model assessed as increase in RBC count at 300 mg/kg, ip preincubated with compound for 15 to 1440 mins followed by irradiation with 6.5 Gy and measured after 10 to 13 days of radiation; type: functional, organism-based; conditions: Erythrocyte
compound,measurement,setting,value
[O-][S+](Cc1ccc(F)cc1)c1ccc2cc(Br)ccc2n1 (stereo not drawn),Activity,Mus musculus [1],Active
same,Activity,Toll-like receptor 2 [2],Active
same,Activity,Mus musculus [3],Active
same,Activity,Toll-like receptor 2 [4],Dose-Dependent Effect
same,Activity,Mus musculus [5],Active
same,Activity,AHH-1 [6],16.2%
same,Activity,Mus musculus [7],Active
same,Activity,AHH-1 [8],Active
same,Activity,Mus musculus [9],Active
same,IC50,AHH-1 [10],154 µM
same,survival at 30 mg/kg,Mus musculus [11],80%
same,Kd,Toll-like receptor 2 [12],3.56 µM
same,Activity,AHH-1 [13],67.6%
same,Activity,Mus musculus [14],Active
same,Activity,Mus musculus [15],Active
same,Activity,Mus musculus [16],Active
same,Activity,Mus musculus [17],Active
same,Activity,Mus musculus [18],Active
same,Activity,Mus musculus [19],Active
same,Activity,AHH-1 [20],1.4%
same,Activity,AHH-1 [21],17.8%
same,Activity,AHH-1 [22],4%
same,Activity,Mus musculus [23],inactive
same,Activity,AHH-1 [24],14%
same,Activity,AHH-1 [25],Active
same,Activity,AHH-1 [26],67.3%
same,Activity,Toll-like receptor 2 [27],Active
same,Activity,Mus musculus [28],Active
